Source: US20200368205A1, “METHODS AND COMBINATION THERAPY TO TREAT CANCER” (ARRAY BIOPHARMA INC., priority 2018, published 2020)

Columns and labels:
A375 (BRAF V600E) cells = test: MHC class I cell surface expression, flow cytometry; assay type: cell-based, human; conditions: 72 hours
Description: (§1) The goal of this study was to measure the effects of binimetinib on cell surface MHC class I expression in various melanoma cell lines. In this study, eight melanoma cell lines were evaluated: MEL-JUSO (NRAS Q61L mutation), IPC-298 (NRAS Q61L mutation), A375 (BRAF V600E, homozygous mutation), HS936.T (NRAS Q61K mutation and BRAF N581K mutation), MM485 (NRAS Q61R mutation), SK-MEL-2 (NRAS Q61R mutation), MM415 (NRAS Q61L mutation), Malme-3M (BRAF V600E, heterozygous mutation). The cells lines were seeded into flat bottom 96-well tissue culture plates at a density of 5000 cells per well and allowed to adhere overnight. The following day cells were treated with vehicle control (0.25% DMSO) or varying dilutions of Binimetinib (0.7 nM-25000 nM) for 1 hour. Cells were then treated with vehicle control or 100 ng/ml IFNgamma (R&D systems) for 72 hours. Cells were washed, trypsinized, and stained with Alexa Fluor® 647 anti-human HLA-A,B,C antibody (W6/32, eBioscience) and analyzed on a BD FACSCanto II flow cytometer. An IFNg titration and time course were performed for assay optimization. Maximal induction of MHC class I expression was seen ˜100 ng/mL of IFNγ (see, e.g., FIGS. 1 and 2).

[1] = test system: HS936.T (NRAS Q61K, BRAF N581K) cells; test: as above; assay type: cell-based, human; conditions: 72 hours
Description: as §1

IPC298 (NRAS Q61L) cells = test: as above; assay type: cell-based, human; conditions: 72 hours
Description: as §1

[2] = test system: MELJUSO (NRAS Q61L) cells; test: as above; assay type: cell-based, human; conditions: for Maximal Fold Increase in MHC Class I Expression: MELJUSO (NRAS Q61L), 72 hours
Description: as §1

MM415 (NRAS Q61L) cells = test: as above; assay type: cell-based, human; conditions: 72 hours
Description: as §1

MM485 (NRAS Q61R) cells = test: as above; assay type: cell-based, human; conditions: 72 hours
Description: as §1

[3] = test system: Malme-3M (BRAF V600E) cells; test: as above; assay type: cell-based, human; conditions: 72 hours
Description: as §1

[4] = test system: SKMEL-2 (NRAS Q61R) cells; test: as above; assay type: cell-based, human; conditions: 72 hours
Description: as §1

melanoma cell lines = test: MHC class I expression across the panel of eight melanoma cell lines; assay type: cell-based, human
Description: as §1

[5] = test system: KRas mutant CT26 syngeneic tumors; test: Growth of KRas mutant CT26 murine colon syngeneic tumors; assay type: in vivo; conditions: for Cures (day 61): animals with no palpable tumor at study end
Description: (§2) 1% CMC/0.5% Tween-80 (CMCT) was prepared by adding 960 mL of distilled water to a 1000 mL Pyrex® glass bottle with a stir bar in the bottom, and was used as the oral vehicle. The water was warmed to 50-60° C. then 5 mL Tween® 80 (polyoxyethylenesorbitan monooleate, Sigma P2287, batch #054K0154) and 15.6 mL benzyl alcohol (Sigma 402834, Batch #00296PK) added. Carboxymethylcellulose (5 g, CMC, low viscosity, Sigma C5678, Batch #033K0008) was added slowly, over one hour. The solution was stirred until the CMC dissolved and the solution was clear. 30 mg/kg MEK162 (Binimetinib, 100% active) was prepared as a white, homogeneous suspension in CMCT. MEK162 was administered in 10 mL/kg and dosed at 30 mg/kg (3.0 mg/mL) by oral gavage. To prepare, dry test compound (90 mg) was weighed and 30 mL CMCT added. Dose suspension was sonicated until a fine suspension was achieved (˜15 min). Final dose suspension was stored at 4° C. during live phase and sonicated to resuspend prior to dose administration. Dose suspension was prepared every 4-5 days or as needed. 100 μg αPD-1 RMP1-14, Rat IgG2a isotype (BioXCell cat.no. BP0146, lot #5792×2/1015)−7.12 mg/mL stock concentration. RMP1-14 was prepared by dilution of 0.843 stock solution with 5.157 mL sterile saline for injection. The antibody was administered at 100 μg/animal (100 μL of a 1 mg/mL dose solution) by intraperitoneal injection.
(§3) Male BALB/c mice from Charles River (Wilmington, Mass.) were obtained at 6-8 weeks of age and housed in groups of 5. Following a two week acclimation period, a suspension of 1×10^5 cells in a volume of 100 μL saline was implanted subcutaneously on the right flank of the animal near the axillary region. Animals were then randomly assigned to treatment groups. Treatment was initiated on day 4 after CT26 tumor cell inoculation to allow for a sufficient treatment window. MEK162 was administered once daily (QD) for 14 consecutive days by oral gavage (PO) at 30 mg/kg and anti-PD1 antibody was administered twice weekly by intraperitoneal injection (IP) (Table 4).
(§4) The combination was evaluated as concomitant administration or sequential where MEK162 treatment was initiated at the time that tumor resistance from anti-PD1 treatment emerged. For the sequential treatment group, animals were enrolled in MEK162 treatment when tumors reached 350-400 mm^3 after anti-PD1 antibody therapy was initiated.
Animals were monitored for tumor growth and body weight 2-3 times per week based on outgrowth kinetics. Tumor diameter was measured with digital calipers, and the tumor volume in mm^3 was calculated by the formula: Volume=((width)^2×length)/2. […] Animals were removed from study if found moribund or if tumor volume exceeded 1400 mm^3. At that time, tumor tissue was harvested and frozen for later analysis of T-cell clonality by immune sequencing (Adaptive Biotech, San Diego, Calif.). Food, water, temperature and humidity were according to Pharmacology Testing Facility performance standards (SOP's) which are in accordance with the 1996 Guide for the Care and Use of Laboratory Animals (NRC) and AAALAC-International.
The murine CT26 cell line (a.k.a. Colon 26 or Colon Tumor #26) was developed in 1975 by exposing BALB/c mice to N-nitroso-N-methylurethane-(NNMU) (Corbett et al., 1975). The undifferentiated colon carcinoma cell line with fibroblast morphology was isolated from BALB/c mice. Extensive genomics, immune phenotyping and therapeutic background are available on this cell line (information summarized from Bhadury et al., 2013, Castle et al., 2014). The cell line is reported to harbor a KRas G12D mutation and the in-house cell line was sequenced and found to match the reported mutation (BGI, Cambridge, Mass.). Literature reports expression of MHC class I but not II and a mutational load of 1688 non-synonymous point mutations; 154 are both in expressed genes and in peptides predicted to bind MHC. […]

B16F10 tumors = test: Growth of B16F10 melanoma tumors; assay type: in vivo
Description: [The procedure below names another cell line; the source lists this cell line under the same test.] as §2, §3, §4
Animals were monitored for tumor growth and body weight 2-3 times per week based on outgrowth kinetics. Tumor diameter was measured with digital calipers, and the tumor volume in mm^3 was calculated by the formula: Volume=((width)^2×length)/2. TGI was calculated on day 15. Animals were removed from study if found moribund or if tumor volume exceeded 1400 mm^3. At that time, tumor tissue was harvested and frozen for later analysis of T-cell clonality by immune sequencing (Adaptive Biotech, San Diego, Calif.). […]
The mean values for tumor volume and body weight by study day for each experimental group were plotted including error bars for the standard error of the mean. % Tumor Growth Inhibition (% TGI): % TGI=100(1−Wt/Wc); Wt is the mean tumor volume of the treated group on day X; We is the mean tumor volume of controls on day X, where X is the last day that the control group is available in its entirety. […] Cures: Animals with no palpable tumor at the end of the study were scored as cures. […]

Cloudman S91 tumors = test: Growth of Cloudman S91 melanoma tumors; assay type: in vivo
RENCA tumors = test: Growth of RENCA renal carcinoma tumors in retired mice; assay type: in vivo
Description: as §2, with “The water was warmed to 50-60° C. then 5 mL Tween® 80 (polyoxyethylenesorbitan monooleate, Sigma P2287, batch #054K0154) and 15.6 mL benzyl alcohol (Sigma 402834, Batch #00296PK) added.” left out, “100 μg αPD-1 RMP1-14, Rat IgG2a isotype (BioXCell cat.no. BP0146, lot #5792×2/1015)−7.12 mg/mL stock concentration. RMP1-14 was prepared by dilution of 0.843 stock solution with 5.157 mL sterile saline for injection.” left out
as §3, §4
Animals were monitored for tumor growth and body weight 2-3 times per week based on outgrowth kinetics. Tumor diameter was measured with digital calipers, and the tumor volume in mm^3 was calculated by the formula: Volume=((width)^2×length)/2. TGI was calculated on day 15. Animals were removed from study if found moribund or if tumor volume exceeded 1400 mm^3. At that time, tumor tissue was harvested and frozen for later analysis of T-cell clonality by immune sequencing (Adaptive Biotech, San Diego, Calif.).
Survival defined as morbidity, mortality or tumor size exceeding 1400 mm3. […] Cures: Animals with no palpable tumor at the end of the study were scored as cures. Maximum % Body Weight Loss (% BWL): % BWL=100(1−BWt/BW0); BW0 is group mean body weight at study start and BWt is group mean or median body weight on day where maximal body weight loss is observed. Tx-Related Deaths: Death occurring during live phase specifically due to drug administration and not attributable to other causes (e.g. gavage trauma, tumor-related morbidity, etc.)
For mice that were injected subcutaneously with RENCA cells, retired female breeders were used (23 weeks old). 200 μg of αPD-1 was administered on days 1, 4, 8 and 11.

[6] = Binimetinib steady state exposure quoted in figure legends; conditions: total

## Cn1cnc2c(F)c(Nc3ccc(Br)cc3F)c(C(=O)NOCCO)cc21 [Binimetinib, 6-(4-bromo-2-fluorophenylamino)-7-fluoro-3-methyl-3H-benzoimidazole-5-carboxylic acid (2-hydroxyethoxy)-amide]
A375 (BRAF V600E) cells; +IFNg 100 ng/ml
  Maximal Fold Increase in MHC Class I Expression: 4 fold
A375 (BRAF V600E) cells; −IFNg
  Maximal Fold Increase in MHC Class I Expression: 2 fold
[1]; +IFNg 100 ng/ml
  Maximal Fold Increase in MHC Class I Expression: 2 fold
[1]; −IFNg
  Maximal Fold Increase in MHC Class I Expression: 1.5 fold
IPC298 (NRAS Q61L) cells; +IFNg 100 ng/ml
  Maximal Fold Increase in MHC Class I Expression: 3 fold
IPC298 (NRAS Q61L) cells; −IFNg
  Maximal Fold Increase in MHC Class I Expression: 2 fold
[2]; MELJUSO (NRAS Q61L) cells, binimetinib alone, FIG. 5A
  increase in MHC class I expression: 2.5 fold
[2]; MELJUSO (NRAS Q61L) cells, in the presence of 100 ng/mL IFNg
  enhancement of IFNγ-induced MHC class I expression: 4-5 fold
[2]; +IFNg 100 ng/ml
  Maximal Fold Increase in MHC Class I Expression: 4 fold
[2]; −IFNg
  Maximal Fold Increase in MHC Class I Expression: 3 fold
MM415 (NRAS Q61L) cells; +IFNg 100 ng/ml
  Maximal Fold Increase in MHC Class I Expression: 2 fold
MM415 (NRAS Q61L) cells; −IFNg
  Maximal Fold Increase in MHC Class I Expression: 0 fold
MM485 (NRAS Q61R) cells; +IFNg 100 ng/ml
  Maximal Fold Increase in MHC Class I Expression: 2 fold
MM485 (NRAS Q61R) cells; −IFNg
  Maximal Fold Increase in MHC Class I Expression: 2 fold
[3]; +IFNg 100 ng/ml
  Maximal Fold Increase in MHC Class I Expression: 1.5 fold
[3]; −IFNg
  Maximal Fold Increase in MHC Class I Expression: 0 fold
[4]; +IFNg 100 ng/ml
  Maximal Fold Increase in MHC Class I Expression: 1.5 fold
[4]; −IFNg
  Maximal Fold Increase in MHC Class I Expression: 2 fold
Melanoma cell lines; binimetinib alone, eight melanoma cell lines
  melanoma cell lines with increased MHC class I cell surface expression: 6 of 8
Melanoma cell lines; binimetinib alone, in 6 of 8 melanoma cell lines
  fold increase in MHC class I cell surface expression: 1.5-3 fold
Melanoma cell lines; with IFNg, all tested cell lines
  fold increase of IFNg-induced MHC class I: 1.5-4 fold
[5]; BALB/c mice
  Deaths: 0/10
[5]; BALB/c mice, MEK162 30 mg/kg PO QD x14, anti-PD1 100 μg IP D 1, 4, 8, 11
  % TGI (Day 13): 43%
[5]; BALB/c mice, MEK162 30 mg/kg PO QD x14, anti-PD1 100 μg IP D 1, 4, 8, 11, 30 mg/kg
  % TGI (Day 13): 43%
[5]; BALB/c mice, maximum body weight loss
  Max % BWL: 0.6%
[5]; BALB/c mice, vehicle 18 days
  Median Survival: 26 days
[5]
  Cures (day 61): 0/10
[5]; listed as MEK162
  Cures (day 61): no cures
B16F10 tumors; B16F10 tumors
  Cures (day 61): 0/10
  Deaths: 2/10
B16F10 tumors; B16F10 tumors, C57BL/6 mice, binimetinib 30 mg/kg, anti-PD-1 100 μg
  % TGI (day 13): 59.0%
B16F10 tumors; B16F10 tumors, vehicle 14
  Median Survival: 19
B16F10 tumors; mouse, in vivo
  Max % BWL: 0.8%
Cloudman S91 tumors
  Cures (day 44): 0/10
  Deaths: 0/10
Cloudman S91 tumors; DBA/2 mice, binimetinib 30 mg/kg, anti-PD-1 100 μg
  % TGI (day 8): −17%
Cloudman S91 tumors; vehicle 12.4
  Max % BWL: 4.8%
Cloudman S91 tumors; vehicle 13
  Median Survival: 11
RENCA tumors; retired mice
  Cures (day 43): 0/12
RENCA tumors; retired mice (23 weeks of age), binimetinib 30 mg/kg, αPD-1 200 μg days 1, 4, 8 and 11
  % TGI (day 18): 25%
RENCA tumors; retired mice, vehicle 9/12
  Deaths: 10/12
RENCA tumors; retired mice, vehicle 15.1
  Maximum % BWL: 23.3%
RENCA tumors; retired mice, vehicle 21
  Median Survival: 24
[6]
  Trough (day 15): 310 nM

## IFNγ: IFNgamma (R&D systems) used to induce MHC class I expression
Melanoma cell lines; IFNg titration, 72-hour treatment, FIGS. 1 and 2 (A375, SKMEL-2)
  IFNγ concentration giving maximal induction of MHC class I expression: ~100 ng/mL
